In article PMC10008561 (Nature Communications, 2023):
Where “and” joins values, the source holds several entries; their conditions need not be identical. Identical values can stand only once. Like-named read-outs stand apart in the source and are kept apart here.

Assays:
DOR = DOR (Homo sapiens, UniProt P41143); experiment: Radioligand competition binding (3H-Diprenorphine)
human KOR (Gz) [1] = molecular target: T1, human KOR (Gz) (Homo sapiens, UniProt P41145, D334A); experiment: cell-based
T1 construct: expressed in transfected cells; host or cells: HEK293T
T1 sequence (P41145 whole entry D334A): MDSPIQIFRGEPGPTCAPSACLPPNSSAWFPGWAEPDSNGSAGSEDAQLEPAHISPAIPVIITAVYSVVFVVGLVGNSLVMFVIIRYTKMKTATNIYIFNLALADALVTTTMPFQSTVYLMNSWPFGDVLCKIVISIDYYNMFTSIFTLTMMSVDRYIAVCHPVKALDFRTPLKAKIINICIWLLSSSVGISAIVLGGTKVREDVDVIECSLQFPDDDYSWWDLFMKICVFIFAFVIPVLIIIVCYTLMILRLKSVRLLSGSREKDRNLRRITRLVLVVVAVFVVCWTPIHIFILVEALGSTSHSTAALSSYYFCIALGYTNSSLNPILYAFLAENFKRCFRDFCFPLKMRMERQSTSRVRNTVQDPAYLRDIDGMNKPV

human KOR (Gz) [2] = molecular target: T2, human KOR (Gz) (Homo sapiens, UniProt P41145, E297A); experiment: cell-based
T2 construct: expressed in transfected cells; host or cells: HEK293T
T2 sequence (P41145 whole entry E297A): as the sequence (P41145 whole entry D334A) above, with E297A, A334D counted along it

human KOR (Gz) [3] = molecular target: T3, human KOR (Gz) (Homo sapiens, UniProt P41145, N141A); experiment: cell-based
T3 construct: expressed in transfected cells; host or cells: HEK293T
T3 sequence (P41145 whole entry N141A): as the sequence (P41145 whole entry D334A) above, with N141A, A334D counted along it

human KOR (Gz) [4] = molecular target: T4, human KOR (Gz) (Homo sapiens, UniProt P41145, T94V); experiment: cell-based
T4 construct: expressed in transfected cells; host or cells: HEK293T
T4 sequence (P41145 whole entry T94V): as the sequence (P41145 whole entry D334A) above, with T94V, A334D counted along it

human KOR (Gz) [5] = molecular target: T5, human KOR (Gz) (Homo sapiens, UniProt P41145, Y139L); experiment: cell-based
T5 construct: expressed in transfected cells; host or cells: HEK293T
T5 sequence (P41145 whole entry Y139L): as the sequence (P41145 whole entry D334A) above, with Y139L, A334D counted along it

human KOR (Gz) [6] = molecular target: T6, human KOR (Gz) (Homo sapiens, UniProt P41145, Y320L); experiment: cell-based
T6 construct: expressed in transfected cells; host or cells: HEK293T
T6 sequence (P41145 whole entry Y320L): as the sequence (P41145 whole entry D334A) above, with Y320L, A334D counted along it

human KOR (β-arrestin 1) [7] = molecular target: T7, human KOR (β-arrestin 1) (Homo sapiens, UniProt P41145); experiment: cell-based
T7 construct: expressed in transfected cells; host or cells: HEK293T
T7 sequence (P41145 whole entry): as the sequence (P41145 whole entry D334A) above, with A334D counted along it

human KOR (β-arrestin 1) [8] = molecular target: T8, human KOR (β-arrestin 1) (Homo sapiens, UniProt P41145, D105A); experiment: cell-based; conditions: HEK-293T
T8 construct: expressed in transfected cells; host or cells: HEK293T
T8 sequence (P41145 whole entry D105A): as the sequence (P41145 whole entry D334A) above, with D105A, A334D counted along it

human KOR (β-arrestin 1) [9] = molecular target: T9, human KOR (β-arrestin 1) (Homo sapiens, UniProt P41145, D155A); experiment: cell-based; conditions: HEK-293T
T9 construct: expressed in transfected cells; host or cells: HEK293T
T9 sequence (P41145 whole entry D155A): as the sequence (P41145 whole entry D334A) above, with D155A, A334D counted along it

human KOR (β-arrestin 1) [10] = molecular target: T10, human KOR (β-arrestin 1) (Homo sapiens, UniProt P41145, D334A); experiment: cell-based; conditions: HEK-293T
T10 construct: expressed in transfected cells; host or cells: HEK293T
T10 sequence (P41145 whole entry D334A): as the sequence (P41145 whole entry D334A) above

human KOR (β-arrestin 1) [11] = molecular target: T11, human KOR (β-arrestin 1) (Homo sapiens, UniProt P41145, E297A); experiment: cell-based; conditions: HEK-293T
T11 construct: expressed in transfected cells; host or cells: HEK293T
T11 sequence (P41145 whole entry E297A): as the sequence (P41145 whole entry D334A) above, with E297A, A334D counted along it

human KOR (β-arrestin 1) [12] = molecular target: T12, human KOR (β-arrestin 1) (Homo sapiens, UniProt P41145, F114L); experiment: cell-based; conditions: HEK-293T
T12 construct: expressed in transfected cells; host or cells: HEK293T
T12 sequence (P41145 whole entry F114L): as the sequence (P41145 whole entry D334A) above, with F114L, A334D counted along it

human KOR (β-arrestin 1) [13] = molecular target: T13, human KOR (β-arrestin 1) (Homo sapiens, UniProt P41145, F283A); experiment: cell-based; conditions: HEK-293T
T13 construct: expressed in transfected cells; host or cells: HEK293T
T13 sequence (P41145 whole entry F283A): as the sequence (P41145 whole entry D334A) above, with F283A, A334D counted along it

human KOR (β-arrestin 1) [14] = molecular target: T14, human KOR (β-arrestin 1) (Homo sapiens, UniProt P41145, G319L); experiment: cell-based; conditions: HEK-293T
T14 construct: expressed in transfected cells; host or cells: HEK293T
T14 sequence (P41145 whole entry G319L): as the sequence (P41145 whole entry D334A) above, with G319L, A334D counted along it

human KOR (β-arrestin 1) [15] = molecular target: T15, human KOR (β-arrestin 1) (Homo sapiens, UniProt P41145, K200A); experiment: cell-based; conditions: HEK-293T
T15 construct: expressed in transfected cells; host or cells: HEK293T
T15 sequence (P41145 whole entry K200A): as the sequence (P41145 whole entry D334A) above, with K200A, A334D counted along it

human KOR (β-arrestin 1) [16] = molecular target: T16, human KOR (β-arrestin 1) (Homo sapiens, UniProt P41145, K227A); experiment: cell-based; conditions: HEK-293T
T16 construct: expressed in transfected cells; host or cells: HEK293T
T16 sequence (P41145 whole entry K227A): as the sequence (P41145 whole entry D334A) above, with K227A, A334D counted along it

human KOR (β-arrestin 1) [17] = molecular target: T17, human KOR (β-arrestin 1) (Homo sapiens, UniProt P41145, L253A); experiment: cell-based; conditions: HEK-293T
T17 construct: expressed in transfected cells; host or cells: HEK293T
T17 sequence (P41145 whole entry L253A): as the sequence (P41145 whole entry D334A) above, with L253A, A334D counted along it

human KOR (β-arrestin 1) [18] = molecular target: T18, human KOR (β-arrestin 1) (Homo sapiens, UniProt P41145, N322A); experiment: cell-based; conditions: HEK-293T
T18 construct: expressed in transfected cells; host or cells: HEK293T
T18 sequence (P41145 whole entry N322A): as the sequence (P41145 whole entry D334A) above, with N322A, A334D counted along it

human KOR (β-arrestin 1) [19] = molecular target: T19, human KOR (β-arrestin 1) (Homo sapiens, UniProt P41145, N326A); experiment: cell-based; conditions: HEK-293T
T19 construct: expressed in transfected cells; host or cells: HEK293T
T19 sequence (P41145 whole entry N326A): as the sequence (P41145 whole entry D334A) above, with N326A, A334D counted along it

human KOR (β-arrestin 1) [20] = molecular target: T20, human KOR (β-arrestin 1) (Homo sapiens, UniProt P41145, Q115N); experiment: cell-based; conditions: HEK-293T
T20 construct: expressed in transfected cells; host or cells: HEK293T
T20 sequence (P41145 whole entry Q115N): as the sequence (P41145 whole entry D334A) above, with Q115N, A334D counted along it

human KOR (β-arrestin 1) [21] = molecular target: T21, human KOR (β-arrestin 1) (Homo sapiens, UniProt P41145, R170A); experiment: cell-based; conditions: HEK-293T
T21 construct: expressed in transfected cells; host or cells: HEK293T
T21 sequence (P41145 whole entry R170A): as the sequence (P41145 whole entry D334A) above, with R170A, A334D counted along it

human KOR (β-arrestin 1) [22] = molecular target: T22, human KOR (β-arrestin 1) (Homo sapiens, UniProt P41145, R257A); experiment: cell-based; conditions: HEK-293T
T22 construct: expressed in transfected cells; host or cells: HEK293T
T22 sequence (P41145 whole entry R257A): as the sequence (P41145 whole entry D334A) above, with R257A, A334D counted along it

human KOR (β-arrestin 1) [23] = molecular target: T23, human KOR (β-arrestin 1) (Homo sapiens, UniProt P41145, R271A); experiment: cell-based; conditions: HEK-293T
T23 construct: expressed in transfected cells; host or cells: HEK293T
T23 sequence (P41145 whole entry R271A): as the sequence (P41145 whole entry D334A) above, with R271A, A334D counted along it

human KOR (β-arrestin 1) [24] = molecular target: T24, human KOR (β-arrestin 1) (Homo sapiens, UniProt P41145, R274A); experiment: cell-based; conditions: HEK-293T
T24 construct: expressed in transfected cells; host or cells: HEK293T
T24 sequence (P41145 whole entry R274A): as the sequence (P41145 whole entry D334A) above, with R274A, A334D counted along it

human KOR (β-arrestin 1) [25] = molecular target: T25, human KOR (β-arrestin 1) (Homo sapiens, UniProt P41145, T94V); experiment: cell-based; conditions: HEK-293T
T25 construct: expressed in transfected cells; host or cells: HEK293T
T25 sequence (P41145 whole entry T94V): as the sequence (P41145 whole entry D334A) above, with T94V, A334D counted along it

human KOR (β-arrestin 1) [26] = molecular target: T26, human KOR (β-arrestin 1) (Homo sapiens, UniProt P41145, Y139L); experiment: cell-based; conditions: HEK-293T
T26 construct: expressed in transfected cells; host or cells: HEK293T
T26 sequence (P41145 whole entry Y139L): as the sequence (P41145 whole entry D334A) above, with Y139L, A334D counted along it

human KOR (β-arrestin 1) [27] = molecular target: T27, human KOR (β-arrestin 1) (Homo sapiens, UniProt P41145, Y320L); experiment: cell-based; conditions: HEK-293T
T27 construct: expressed in transfected cells; host or cells: HEK293T
T27 sequence (P41145 whole entry Y320L): as the sequence (P41145 whole entry D334A) above, with Y320L, A334D counted along it

KOR = experiment: Bias factor, Gz vs β-arrestin2 (BRET), U50,488 as reference; assay type: cell-based, human
KOR Q115N [28] = molecular target: T28, KOR Q115N (Homo sapiens, UniProt P41145, Q115N); experiment: cell-based; parameters: expressed in transfected cells; host or cells: HEK 293T (ATCC, CRL-3216); conditions: read-out: cAMP response (Figure S4C), KOR Q115N, Log [Drug], replicate values
Target sequence in this assay (P41145 whole entry Q115N): as the sequence (P41145 whole entry D334A) above, with Q115N, A334D counted along it

KOR Q115N [29] = molecular target: T28, KOR Q115N; experiment: cell-based; parameters: TEV cleavage site (C); tTA transcription factor (C); expressed in transfected cells; host or cells: HTLA cells; conditions: read-out: Tango response (Figure S4C), KOR Q115N, Log [Drug], replicate values
Target sequence in this assay (P41145 whole entry Q115N): as the sequence (P41145 whole entry D334A) above, with Q115N, A334D counted along it
Target sequence in this assay (P32121 whole entry partner): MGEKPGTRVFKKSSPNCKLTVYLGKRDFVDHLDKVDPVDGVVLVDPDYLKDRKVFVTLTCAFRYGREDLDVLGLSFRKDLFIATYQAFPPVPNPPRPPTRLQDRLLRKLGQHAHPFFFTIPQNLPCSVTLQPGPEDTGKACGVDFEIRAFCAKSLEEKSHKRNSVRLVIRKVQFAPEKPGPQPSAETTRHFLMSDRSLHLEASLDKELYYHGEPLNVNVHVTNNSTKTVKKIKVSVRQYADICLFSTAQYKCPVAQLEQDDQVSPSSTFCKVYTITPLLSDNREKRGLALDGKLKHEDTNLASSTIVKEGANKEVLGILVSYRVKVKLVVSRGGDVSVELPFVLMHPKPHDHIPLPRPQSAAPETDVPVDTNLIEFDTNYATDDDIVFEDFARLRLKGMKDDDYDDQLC

[30] = HEK-293T, read-out: βArrestin1 (Figure 5A concentration-response, replicate values)

DOR, sequence (P41143 whole entry): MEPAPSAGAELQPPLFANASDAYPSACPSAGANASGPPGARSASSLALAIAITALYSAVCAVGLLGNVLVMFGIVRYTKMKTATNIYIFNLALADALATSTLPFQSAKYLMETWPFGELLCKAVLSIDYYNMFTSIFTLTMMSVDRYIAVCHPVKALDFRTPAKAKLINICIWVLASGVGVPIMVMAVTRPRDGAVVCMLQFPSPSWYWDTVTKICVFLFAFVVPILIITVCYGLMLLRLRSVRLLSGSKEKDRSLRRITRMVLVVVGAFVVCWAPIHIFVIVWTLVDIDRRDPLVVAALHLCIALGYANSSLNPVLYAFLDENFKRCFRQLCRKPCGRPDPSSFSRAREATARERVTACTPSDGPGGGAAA

## CN(C(=O)/C=C/c1ccoc1)[C@@H]1CC[C@@]2(O)[C@H]3Cc4ccc(O)c5c4[C@@]2(CCN3CC2CC2)[C@H]1O5 [Nalfurafine, nalfurafine]
DOR
  Ki: 427 pM
Human KOR (Gz) [1]
  FC vs wild type: 112
Human KOR (Gz) [1]; HEK-293T
  Emax: 99.2%
Human KOR (Gz) [2]
  FC vs wild type: 1
Human KOR (Gz) [2]; HEK-293T
  Emax: 103%
Human KOR (Gz) [3]
  FC vs wild type: 93
Human KOR (Gz) [3]; HEK-293T
  Emax: 98.3%
Human KOR (Gz) [4]
  FC vs wild type: 6
Human KOR (Gz) [5]
  FC vs wild type: 4
Human KOR (Gz) [5]; HEK-293T
  Emax: 103%
Human KOR (Gz) [6]
  FC vs wild type: 407
Human KOR (Gz) [6]; HEK-293T
  Emax: 93.7%
Human KOR (β-arrestin 1) [7]
  Emax%: 52.03% and 50%
Human KOR (β-arrestin 1) [7]; HEK-293T
  Emax: 52.1%
Human KOR (β-arrestin 1) [7]; [30]
  activation at 0.01 µM: 47.1%
  activation at 0.1 µM: 49.9%
  activation at 1 µM: 52.7%
Human KOR (β-arrestin 1) [8]
  Emax: 91.6%
Human KOR (β-arrestin 1) [9]
  Emax: 86.5%
Human KOR (β-arrestin 1) [10]
  Emax: 71.1%
Human KOR (β-arrestin 1) [11]
  Emax: 101%
Human KOR (β-arrestin 1) [12]
  Emax: 33.9%
Human KOR (β-arrestin 1) [13]
  Emax: 100%
Human KOR (β-arrestin 1) [14]
  Emax: 60.4%
Human KOR (β-arrestin 1) [15]
  Emax: 81.3%
Human KOR (β-arrestin 1) [16]
  Emax: 77.5%
Human KOR (β-arrestin 1) [17]
  Emax: 94.5%
Human KOR (β-arrestin 1) [18]
  Emax: 101%
Human KOR (β-arrestin 1) [19]
  Emax: 65.2%
Human KOR (β-arrestin 1) [20]
  Emax: 62.2%
Human KOR (β-arrestin 1) [21]
  Emax: 81.8%
Human KOR (β-arrestin 1) [22]
  Emax: 103%
Human KOR (β-arrestin 1) [23]
  Emax: 101%
Human KOR (β-arrestin 1) [24]
  Emax: 78.7%
Human KOR (β-arrestin 1) [25]
  Emax: 73.2%
Human KOR (β-arrestin 1) [26]
  Emax: 92.8%
Human KOR (β-arrestin 1) [27]
  Emax: 83.6%
KOR
  bias factor towards Gz protein: 4.8
KOR Q115N [28]; M -6
  activation at 1 µM: 99.3%
KOR Q115N [28]; M -6.5
  activation at […]: 94.1%
KOR Q115N [28]; M -7
  activation at 0.1 µM: 101%
KOR Q115N [28]; M -7.5
  activation at […]: 96.7%
KOR Q115N [28]; M -8
  activation at 0.01 µM: 100%
KOR Q115N [28]; M -8.5
  activation at […]: 91.3%
KOR Q115N [28]; M -9
  activation at 0.001 µM: 89.3%
KOR Q115N [28]; M -9.5
  activation at […]: 82.2%
KOR Q115N [28]; M -10
  activation at 0.0001 µM: 67.6%
KOR Q115N [28]; M -11
  activation at 10 pM: 7.51%
KOR Q115N [29]; M -5
  activation at 10 µM: 106%
KOR Q115N [29]; M -6.5
  activation at […]: 92.3%
KOR Q115N [29]; M -7
  activation at 0.1 µM: 92.6%
KOR Q115N [29]; M -7.5
  activation at […]: 76.8%
KOR Q115N [29]; M -8
  activation at 0.01 µM: 80.2%
KOR Q115N [29]; M -8.5
  activation at […]: 39%
